According to paper PMC7839234 (FASEB journal : official publication of the Federation of …, 2020):

Key:
Assay type in all cases: cell-based
SLC22A15 [1] = molecular target: T1, SLC22A15 (Homo sapiens, UniProt Q8IZD6)
SLC22A15 [2] = molecular target: T1, SLC22A15; test: radiolabelled uptake in transfected HEK293 Flp-In cells
SLC22A4 = molecular target: T2, SLC22A4 (Homo sapiens, UniProt Q9H015); test: as above
T2 sequence (Q9H015 1-551): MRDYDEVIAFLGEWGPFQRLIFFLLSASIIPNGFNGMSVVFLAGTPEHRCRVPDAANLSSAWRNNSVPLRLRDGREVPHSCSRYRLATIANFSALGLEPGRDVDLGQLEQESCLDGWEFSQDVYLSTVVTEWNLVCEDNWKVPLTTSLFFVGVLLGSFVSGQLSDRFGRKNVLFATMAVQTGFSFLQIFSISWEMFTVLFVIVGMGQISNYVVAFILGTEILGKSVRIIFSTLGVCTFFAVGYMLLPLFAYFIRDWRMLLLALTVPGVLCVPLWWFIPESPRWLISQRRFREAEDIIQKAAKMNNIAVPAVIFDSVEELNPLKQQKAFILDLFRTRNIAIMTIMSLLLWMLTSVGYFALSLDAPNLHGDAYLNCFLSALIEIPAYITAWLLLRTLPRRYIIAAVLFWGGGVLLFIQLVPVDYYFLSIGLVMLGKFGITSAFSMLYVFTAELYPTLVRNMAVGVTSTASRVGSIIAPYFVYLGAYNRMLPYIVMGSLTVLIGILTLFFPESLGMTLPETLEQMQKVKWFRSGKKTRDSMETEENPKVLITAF

T1 sequence (Q8IZD6 whole entry): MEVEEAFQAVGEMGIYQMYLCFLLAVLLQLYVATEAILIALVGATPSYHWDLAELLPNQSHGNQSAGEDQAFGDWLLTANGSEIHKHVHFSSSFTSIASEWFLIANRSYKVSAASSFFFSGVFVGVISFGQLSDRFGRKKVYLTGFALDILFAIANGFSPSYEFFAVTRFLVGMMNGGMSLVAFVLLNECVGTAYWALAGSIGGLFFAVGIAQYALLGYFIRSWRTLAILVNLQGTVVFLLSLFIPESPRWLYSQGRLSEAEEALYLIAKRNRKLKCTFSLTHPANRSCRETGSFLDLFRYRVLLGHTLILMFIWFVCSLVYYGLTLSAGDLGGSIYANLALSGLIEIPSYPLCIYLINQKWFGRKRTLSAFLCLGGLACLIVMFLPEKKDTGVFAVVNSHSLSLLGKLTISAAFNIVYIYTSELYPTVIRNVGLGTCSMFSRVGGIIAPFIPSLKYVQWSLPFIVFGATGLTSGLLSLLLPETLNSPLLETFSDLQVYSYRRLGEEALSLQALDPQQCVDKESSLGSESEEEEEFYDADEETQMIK

Compound: O=S(=O)(O)CCN1CCN(CCO)CC1 [HEPES, 4-(2-hydroxyethyl)-1-piperazineethanesulfonic acid]
- IC50 (SLC22A15 [1]): 5.8 ± 1.4 mM

Compound: C[N+](C)(C)CC(=O)O [betaine]
- radiolabelled uptake in transfected HEK293 Flp-In cells (SLC22A15 [2]): highest fold-uptake over empty vector were the zwitterions: ergothioneine, carnosine and betaine

Compound: C[N+](C)(C)[C@@H](Cc1c[nH]c(=S)[nH]1)C(=O)[O-] [ergothioneine]
- radiolabelled uptake in transfected HEK293 Flp-In cells (SLC22A4): only SLC22A4 and SLC22A15 showed significant uptake of ergothioneine over EV cells (Fig. 3B)
